# Measured values: patent US20160046618A1, “Cyclopropyl Fused Thiazin-2-Amine Compounds as Beta-Secretase Inhibitors and Methods of Use” (AMGEN INC., priority 2014, published 2016)
# Read-outs that look alike come from different tables or passages of the source.
# How the values were obtained:
# human recombinant BACE1 = human recombinant BACE1 (Homo sapiens (Human), UniProt P56817); test: In vitro enzymatic BACE1 FRET assay; assay type: biochemical; settings: read-out: IC50 IP (μM) BACE1 enzyme
# Procedure, shortened: (§1)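 Fluorescence from cleavage of a quenched peptide spanning the BACE site (50 nM) was read at 488 nm excitation, 590 nm emission. Purified enzyme (Ni-NTA) and compound reacted for one hour before a Tris stop shifted pH to neutral.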
# human recombinant BACE2 = human recombinant BACE2 (Homo sapiens (Human), UniProt Q9Y5Z0); test: In vitro enzymatic BACE2 FRET assay; assay type: biochemical; settings: read-out: IC50 IP (μM) BACE2 enzyme
# Procedure, shortened: as §1
# [1] = system: Aβ40 in conditioned medium of cells stably expressing Amyloid Precursor Protein (APP); test: In vitro BACE-1 cell-based assay (Aβ40 sandwich ELISA); settings: read-out: IC50 IP (μM) BACE1 cell
# Procedure, shortened: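 Aβ40 in supernatants measured by time-resolved fluorescence sandwich ELISA, with pAb40 as capture and biotin-6E10 as detector antibody, each incubated at 4 °C.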
# Recombinant Cat D = Recombinant Cat D (Homo sapiens (Human), UniProt P07339); test: In vitro enzymatic Cathepsin D (Cat D) FRET assay; assay type: biochemical; settings: read-out: IC50 IP (μM) CatD
# Procedure, shortened: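 Cleavage of a 20 nM fluorophore/quencher peptide by CHO-expressed recombinant Cat D proceeded for one hour at pH 3.5 (0.05 M citrate, 5 mM CHAPS, 10% DMSO final). Tris addition neutralized the pH to end the reaction. Fluorescence was then measured (ex 500 nm/em 580 nm).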
# Recombinant Cat D, sequence (P07339 65-412): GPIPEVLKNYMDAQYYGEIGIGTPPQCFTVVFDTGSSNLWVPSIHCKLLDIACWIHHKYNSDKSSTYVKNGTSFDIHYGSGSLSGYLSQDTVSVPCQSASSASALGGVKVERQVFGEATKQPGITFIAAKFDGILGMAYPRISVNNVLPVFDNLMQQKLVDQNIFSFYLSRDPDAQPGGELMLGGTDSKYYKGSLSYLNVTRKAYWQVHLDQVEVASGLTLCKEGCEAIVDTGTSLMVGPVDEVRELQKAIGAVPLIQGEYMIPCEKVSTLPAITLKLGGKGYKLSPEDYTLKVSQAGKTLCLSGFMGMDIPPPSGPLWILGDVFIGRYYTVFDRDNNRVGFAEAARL
# human recombinant BACE2, sequence (Q9Y5Z0 63-518): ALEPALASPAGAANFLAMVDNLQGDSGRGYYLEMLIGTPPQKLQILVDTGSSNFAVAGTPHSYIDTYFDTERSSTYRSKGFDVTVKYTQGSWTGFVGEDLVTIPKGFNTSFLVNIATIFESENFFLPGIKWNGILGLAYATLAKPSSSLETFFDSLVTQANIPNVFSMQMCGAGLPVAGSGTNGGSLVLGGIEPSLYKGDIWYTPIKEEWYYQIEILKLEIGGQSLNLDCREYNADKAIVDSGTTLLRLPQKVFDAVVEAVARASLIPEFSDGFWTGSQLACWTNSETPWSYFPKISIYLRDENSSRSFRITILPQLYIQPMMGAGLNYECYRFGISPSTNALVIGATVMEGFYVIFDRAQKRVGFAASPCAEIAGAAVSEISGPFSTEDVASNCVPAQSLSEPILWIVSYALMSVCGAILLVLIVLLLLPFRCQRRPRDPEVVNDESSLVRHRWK
# human recombinant BACE1, sequence (P56817 46-501): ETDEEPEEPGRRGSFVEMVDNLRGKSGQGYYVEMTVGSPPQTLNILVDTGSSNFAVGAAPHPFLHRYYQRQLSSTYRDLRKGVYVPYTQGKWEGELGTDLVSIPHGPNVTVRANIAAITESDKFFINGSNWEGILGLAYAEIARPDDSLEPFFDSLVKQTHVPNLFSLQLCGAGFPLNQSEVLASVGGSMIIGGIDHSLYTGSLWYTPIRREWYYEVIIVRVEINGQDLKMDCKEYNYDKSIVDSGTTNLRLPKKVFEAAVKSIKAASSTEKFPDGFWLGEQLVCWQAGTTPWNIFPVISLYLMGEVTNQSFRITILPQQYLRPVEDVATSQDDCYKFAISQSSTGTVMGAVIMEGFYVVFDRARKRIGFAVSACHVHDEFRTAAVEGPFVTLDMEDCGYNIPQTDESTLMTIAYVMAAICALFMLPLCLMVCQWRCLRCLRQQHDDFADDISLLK
SMILES,IC50 (human recombinant BACE1; BACE1 FRET enzyme assay) [µM],IC50 (human recombinant BACE2; BACE2 FRET enzyme assay) [µM],IC50 ([1]; BACE1 cell-based assay) [µM],IC50 (Recombinant Cat D; Cathepsin D FRET enzyme assay) [µM],IC50 (human recombinant BACE1) [µM],IC50 (human recombinant BACE2) [µM],IC50 [1] [µM],IC50 (Recombinant Cat D) [µM]
"NC1=N[C@](CF)(c2cc(NC(=O)c3ccc(Cl)cn3)cc(F)c2F)[C@@H]2C[C@]2(CO)S1 [Example 31, N-(3-((1S,5S,6S)-3-amino-5-(fluoromethyl)-1-(hydroxymethyl)-2-thia-4-azabicyclo[4.1.0]hept-3-en-5-yl)-4,5-difluorophenyl)-5-chloropicolinamide]",0.00206,0.00109,0.00226,1400,–,–,–,–
"COC[C@]12C[C@H]1[C@@](C)(c1cc(NC(=O)c3cnc(OCC4CC4(F)F)cn3)cc(F)c1F)N=C(N)S2 (stereo partly drawn) [Example 1035, N-(3-((1S,5S,6S)-3-amino-1-(methoxymethyl)-5-methyl-2-thia-4-azabicyclo[4.1.0]hept-3-en-5-yl)-4,5-difluorophenyl)-5-((2,2-difluorocyclopropyl)methoxy)pyrazine-2-carboxamide]",–,–,–,–,0.00258,0.1,0.022,1210
"C[C@]1(c2cc(NC(=O)c3cnc(OCC(F)(F)F)cn3)ccc2F)N=C(N)S[C@@]2(CF)C[C@H]21 [Example 826, N-(3-((1S,5S,6S)-3-amino-1-(fluoromethyl)-5-methyl-2-thia-4-azabicyclo[4.1.0]hept-3-en-5-yl)-4-fluorophenyl)-5-(2,2,2-trifluoroethoxy)-2-pyrazinecarboxamide]",–,–,–,–,0.00174,0.0778,0.00331,395
"NC1=N[C@](CF)(c2cc(NC(=O)c3ccc(Cl)cn3)ccc2F)[C@@H]2C[C@]2(c2cnco2)S1 [Example 785, N-(3-((1S,5S,6S)-3-amino-5-(fluoromethyl)-1-(1,3-oxazol-5-yl)-2-thia-4-azabicyclo[4.1.0]hept-3-en-5-yl)-4-fluorophenyl)-5-chloro-2-pyridinecarboxamide]",–,–,–,–,0.00112,< 0.00203,0.0102,621
"C[C@]1(c2cc(NC(=O)c3ccc(Cl)cn3)cnc2F)N=C(N)S[C@@]2(C(F)F)C[C@@H]12 [Example 655, N-(5-((1S,5S,6S)-3-amino-1-(difluoromethyl)-5-methyl-2-thia-4-azabicyclo[4.1.0]hept-3-en-5-yl)-6-fluoro-3-pyridinyl)-5-chloro-2-pyridinecarboxamide]",–,–,–,–,0.00455,< 0.00203,0.006,1720
"COC[C@]12C[C@H]1[C@@](C)(c1cc(Nc3nccc4cc(OCc5ncon5)cnc34)cc(F)c1F)N=C(N)S2 [Example 730, N-(3-((1S,5S,6S)-3-amino-1-(methoxymethyl)-5-methyl-2-thia-4-azabicyclo[4.1.0]hept-3-en-5-yl)-4,5-difluorophenyl)-3-(1,2,4-oxadiazol-3-ylmethoxy)-1,7-naphthyridin-8-amine]",–,–,–,–,0.0157,1.03,0.0759,1380
"C[C@]1(c2cc(NC(=O)c3ccc(Cl)cn3)ccc2F)N=C(N)S[C@@H]2[C@H]1C2(F)F [Example 69, N-(3-((1R,5S,6R)-3-amino-7,7-difluoro-5-methyl-2-thia-4-azabicyclo[4.1.0]hept-3-en-5-yl)-4-fluorophenyl)-5-chloro-2-pyridinecarboxamide]",0.0152,0.00302,0.114,939,–,–,–,–
"Cc1nc(OCc2ncco2)cnc1C(=O)Nc1cc(F)c(F)c([C@@]2(C)N=C(N)S[C@@]3(C(F)F)C[C@@H]23)c1 [Example 860, N-(3-((1S,5S,6S)-3-amino-1-(difluoromethyl)-5-methyl-2-thia-4-azabicyclo[4.1.0]hept-3-en-5-yl)-4,5-difluorophenyl)-3-methyl-5-(1,3-oxazol-2-ylmethoxy)-2-pyrazinecarboxamide]",–,–,–,–,0.00276,0.0286,0.00853,1010
"CC(C)Oc1cnc2c(Nc3cc(F)c(F)c([C@@]4(C)N=C(N)S[C@@]5(C(F)F)C[C@@H]45)c3)nccc2n1 [Example 876, N-(3-((1S,5S,6S)-3-amino-1-(difluoromethyl)-5-methyl-2-thia-4-azabicyclo[4.1.0]hept-3-en-5-yl)-4,5-difluorophenyl)-2-(1-methylethoxy)pyrido[3,4-b]pyrazin-5-amine]",–,–,–,–,0.0801,0.912,0.587,223
"COC[C@]12C[C@H]1[C@@](C)(c1cc(Nc3nccc4nc(OCc5ncccn5)cnc34)cc(F)c1F)N=C(N)S2 [Example 881, N-(3-((1S,5S,6S)-3-amino-1-(methoxymethyl)-5-methyl-2-thia-4-azabicyclo[4.1.0]hept-3-en-5-yl)-4,5-difluorophenyl)-2-(2-pyrimidinylmethoxy)pyrido[3,4-b]pyrazin-5-amine]",–,–,–,–,0.00936,0.14,0.00819,349
"COc1cnc2c(Nc3ccc(F)c([C@@]4(CF)N=C(N)S[C@H]5CC54)c3)ncnc2c1 (stereo in doubt) [Example 88, N-(3-((1S,5S,6S)-3-amino-5-(fluoromethyl)-2-thia-4-azabicyclo[4.1.0]hept-3-en-5-yl)-4-fluorophenyl)-7-methoxypyrido[3,2-d]pyrimidin-4-amine]",0.0416,0.137,0.0264,> 400,–,–,–,–
"NC1=N[C@](CF)(c2cc(NC(=O)c3ccc(Cl)cn3)ccc2F)[C@H]2C[C@@]2(CO)S1 [Example 42, N-(3-((1R,5S,6R)-3-amino-5-(fluoromethyl)-1-(hydroxymethyl)-2-thia-4-azabicyclo[4.1.0]hept-3-en-5-yl)-4-fluorophenyl)-5-chloro-2-pyridinecarboxamide]",0.00601,0.0039,0.00576,95.6,–,–,–,–

# More lines, in order of falling IC50 (human recombinant BACE1), values ahead:
IC50 (human recombinant BACE1; BACE1 FRET enzyme assay) [µM],IC50 (human recombinant BACE2; BACE2 FRET enzyme assay) [µM],IC50 ([1]; BACE1 cell-based assay) [µM],IC50 (Recombinant Cat D; Cathepsin D FRET enzyme assay) [µM],IC50 (human recombinant BACE1) [µM],IC50 (human recombinant BACE2) [µM],IC50 [1] [µM],IC50 (Recombinant Cat D) [µM],SMILES
–,–,–,–,0.00102,0.00913,0.0109,613,"C#CCOc1cnc2c(Nc3ccc(F)c([C@@]4(C)N=C(N)S[C@]5([C@H](C)O)[C@H]4C5(F)F)c3)nccc2n1 [Example 714, (1S)-1-((1S,5S,6R)-3-amino-7,7-difluoro-5-(2-fluoro-5-((2-(2-propyn-1-yloxy)pyrido[3,4-b]pyrazin-5-yl)amino)phenyl)-5-methyl-2-thia-4-azabicyclo[4.1.0]hept-3-en-1-yl)ethanol]"
–,–,–,–,0.000728,< 0.00203,0.00082,> 400,"C#CCOc1cnc2c(Nc3ccc(F)c([C@@]4(CF)N=C(N)S[C@@]5(C(=O)N(C)C)C[C@H]54)c3)nccc2n1 [Example 779, (1S,5S,6S)-3-amino-5-(fluoromethyl)-5-(2-fluoro-5-((2-(2-propyn-1-yloxy)pyrido[3,4-b]pyrazin-5-yl)amino)phenyl)-N,N-dimethyl-2-thia-4-azabicyclo[4.1.0]hept-3-ene-1-carboxamide]"
–,–,–,–,0.000706,0.0319,0.00171,124,"C[C@]1(c2cc(Nc3nccc4nc(OCc5ncco5)cnc34)ccc2F)N=C(N)S[C@@]2(C(F)F)C[C@@H]12 [Example 817, N-(3-((1S,5S,6S)-3-amino-1-(difluoromethyl)-5-methyl-2-thia-4-azabicyclo[4.1.0]hept-3-en-5-yl)-4-fluorophenyl)-2-(1,3-oxazol-2-ylmethoxy)pyrido[3,4-b]pyrazin-5-amine]"
–,–,–,–,0.000566,0.0101,0.00221,121,"C#CCOc1cnc(C(=O)Nc2ccc(F)c([C@@]3(C)N=C(N)S[C@@]4(C(F)F)C[C@@H]34)c2)c(C)n1 [Example 830, N-(3-((1S,5S,6S)-3-amino-1-(difluoromethyl)-5-methyl-2-thia-4-azabicyclo[4.1.0]hept-3-en-5-yl)-4-fluorophenyl)-3-methyl-5-(2-propyn-1-yloxy)-2-pyrazinecarboxamide]"
–,–,–,–,0.000526,0.00491,0.000709,315,"C#CCOc1cnc2c(Nc3cc(F)c(F)c([C@@]4(C)N=C(N)S[C@@]5(C(=O)N6CCCC6)C[C@H]54)c3)ncnc2c1 [Example 933, N-(3-((1S,5S,6S)-3-amino-5-methyl-1-(1-pyrrolidinylcarbonyl)-2-thia-4-azabicyclo[4.1.0]hept-3-en-5-yl)-4,5-difluorophenyl)-7-(2-propyn-1-yloxy)pyrido[3,2-d]pyrimidin-4-amine]"
–,–,–,–,0.000315,0.0201,0.000859,> 400,"C#CCOc1cnc2c(Nc3ccc(F)c([C@@]4(C)N=C(N)S[C@@]5(C(=O)NC)C[C@H]54)c3)nccc2n1 [Example 979, (1S,5S,6S)-3-amino-5-(2-fluoro-5-((2-(2-propyn-1-yloxy)pyrido[3,4-b]pyrazin-5-yl)amino)phenyl)-N,5-dimethyl-2-thia-4-azabicyclo[4.1.0]hept-3-ene-1-carboxamide]"
–,–,–,–,0.000236,0.0123,0.00301,325,"CC#CCOc1cnc2c(Nc3ccc(F)c([C@@]4(CF)N=C(N)S[C@@]5(CF)C[C@H]54)c3)nccc2n1 [Example 865, N-(3-((1S,5S,6S)-3-amino-1,5-bis(fluoromethyl)-2-thia-4-azabicyclo[4.1.0]hept-3-en-5-yl)-4-fluorophenyl)-2-(2-butyn-1-yloxy)pyrido[3,4-b]pyrazin-5-amine]"
